# Assay results from patent US10183011B2, “Anti-depression compounds” (Board of Regents of the University of Texas System, priority 2009, dated 2019).
# “Also recorded” adds a separate entry of the source.
# Key:
# [1] = test system: hypothalamic neural precursor cells; experiment: Hypothalamic neurogenesis (BrdU); format: in vivo, mouse (C57BL/6); details: 10 mg/kg twice daily i.p.
# Description: FIG. 27. Example 45 Compound (P7C3) Augments Hypothalamic Neurogenesis. Administration of P7C3 for a one month period of time augments proliferation of hypothalamic neural precursor cells (shown in red) in the arcuate nucleus (ARC), dorsomedial hypothalamus (DMH) and ventralmedial hypothalamus (VMH). Micrographs shown are representative of staining from every third section throughout the hypothalamus in 4-6 mice for each treatment group.
# It was evaluated whether P7C3 might augment hypothalamic neurogenesis by administering either vehicle or P7C3 (10 mg/kg twice daily, i.p.) to nine week old male C57BL/6 mice, starting two days before implantation of 7 day Alzet osmotic minipumps (model 1007d) loaded with BrdU (1 mg/kg). Pumps were connected to a cannula that delivered BrdU at a constant rate into the left lateral ventricle for the seven day period, during which time animals continued to receive either vehicle or P7C3. Pumps were surgically removed at the conclusion of their 7 day operating period, and mice were allowed to survive for 4 more weeks, during which time they continued to receive either vehicle or P7C3. At the end of the 4 week period, mice were deeply anesthetized with intraperitoneal (i.p.) injection of mouse anesthetic cocktail and transcardially perfused with 4% paraformaldehyde (PFA) in phosphate buffered saline (pH 7.4). […]
# [2] = test system: neural precursor cells in the subgranular zone of the dentate gyrus; experiment: In vivo pro-neurogenic efficacy/neuroprotection assay: intracerebroventricular infusion, BrdU incorporation in the dentate gyrus; parameters: species or system mouse (C57/Bl6); details: for pro-neurogenic activity in the in vivo hippocampal neurogenesis assay: direct administration into the brain via Alzet minipumps for one week, 10 μM unless stated
# Description: Compounds were evaluated for pro-neurogenic efficacy/neuroprotection in our standard in vivo assay at 10 μM concentration in four 12 week old adult male C57/Bl6 mice.
# In an effort to identify compounds that might stimulate the birth of new neurons, or protect newborn neurons from cell death, a library of 1,000 compounds was screened using an in vivo assay. In the initial screen, compounds were randomly pooled into groups often and administered intracerebroventricularly at a constant rate over seven days into the left lateral ventricle of living mice via Alzet osmotic mini-pumps. Compounds were administered at a concentration of 10 μM for each molecule, making a total solute concentration of 100 μM. After seven days of infusion at a constant rate of 0.5 μL/hour, a total of 84 μL of volume will have left the pump (0.00084 μMoles) and entered the cerebrospinal fluid. The average volume of a brain from a 12 week old male, C57/B6 mouse in our study is 500 mm^3. […] Under these conditions, at the end of one week of infusion each compound would be present at 1.7 μMolar concentration. Since the actual amount of chemical compound in the brain is likely to be only a fraction of this predicted level, it is reasonable to estimate that compounds were administered at mid to low-nanomolar concentrations.
# During compound infusion, animals were intraperitoneally (IP) injected daily with the thymidine analog, bromodeoxyuridine (BrdU), as a means of scoring the birth and survival of proliferating neural precursor cells in the hippocampus. Because both social interaction and voluntary exercise are known to stimulate hippocampal neurogenesis, mice were housed individually without access to running wheels throughout the screening period. Following the week-long period of compound administration, animals were perfused and sacrificed. Dissected brain tissue was fixed, embedded, sectioned, stained with antibodies to BrdU, and evaluated by light microcopy as a means of quantifying neurogenesis and survival of newborn neural precursor cells localized to the subgranular layer of the dentate gyrus on the brain hemisphere contralateral to the side of mini-pump cannulation. Every fifth section throughout the entire rostral-caudal extent of the hippocampus was analyzed, and the total number of BrdU+ cells was normalized against the measured volume of the dentate gyrus. Because both increased proliferation and survival of newborn neurons are important screening parameters, the screen was conducted over seven days in order to cast a wide net to detect molecules that might augment either process. […] Intracranial infusions of either fibroblast growth factor 2 (FGF-2) or artificial cerebral spinal fluid (aCSF) vehicle via the same, week-long protocol were employed as positive and negative controls. There was no difference in the number of BrdU-labeled cells in the dentate gyrus between mice subjected to surgical pump implantation and infusion with vehicle, and mice having had no surgery (FIG. 2). This confirmed the validity of the in vivo approach to assess the ability of intracerebroventricularly infused compounds to enhance hippocampal neurogenesis in the contralateral hemisphere.
# In order to further study Example 45 Compound, an in vivo structure activity relationship (SAR) study was conducted using 37 chemical derivatives of the compound for pro-neurogenic activity via direct administration into the brain of adult mice via Alzet minipumps. Compounds were administered for one week at 10 uM into 4 mice per compound, along with daily IP injections of BrdU. Following compound administration, animals were perfused, sacrificed and subjected to sectioning, staining and light microscopy in order to monitor hippocampal neurogenesis localized to the subgranular layer of the dentate gyrus. Roughly 10% of the variant compounds retained pro-neurogenic activity indistinguishable from the parent compound. […]
# [3] = Brain and blood levels three weeks after MPTP administration (LC/MS/MS); format: in vivo, mouse (C57BL/6); details: 21 days i.p. dosing after MPTP
# Description: Data are expressed as mean±SEM. Three animals were tested per group.
# C57BL/6 mice treated with MPTP and then dosed IP with compound for 21 days were utilized for pharmacokinetic (PK) analysis of total P7C3, P7C3A20 and Dimebon levels in plasma and brain. In a separate set of experiments designed to test the ability of new P7C3 analogs to cross the blood brain barrier, C57BL/6 mice were dosed IP a single time with compounds at 10 mg/kg. P7C3, P7C3A20 and Dimebon were formulated for administration as described above. Analogs were formulated in 5% Dextrose, pH 7.4, containing 5% DMSO and 10% Cremophor EL with the exception of P7C3-S8 which required 10% DMSO and 20% Cremophor EL dissolved in 5% Dextrose for delivery. Six hours after the final compound dose, animals were given an inhalation overdose of CO2 and whole blood and brain collected. Plasma was prepared from blood and was stored along with the brain tissue at −80° C. until analysis. […] The supernatant was then analyzed by LC/MS/MS. […] The limit of quantitation (LOQ) was defined as the lowest concentration at which back calculation yielded a concentration within 20% of the theoretical value and above the LOD signal. […] Compound levels were monitored by LC/MS/MS using an AB/Sciex (Framingham, Mass.) 3200 Qtrap mass spectrometer coupled to a Shimadzu (Columbia, Md.) Prominence LC.
# [4] = biological target: hERG channel (Homo sapiens, UniProt Q12809); experiment: hERG channel binding
# Sequence of hERG channel (Q12809 whole entry): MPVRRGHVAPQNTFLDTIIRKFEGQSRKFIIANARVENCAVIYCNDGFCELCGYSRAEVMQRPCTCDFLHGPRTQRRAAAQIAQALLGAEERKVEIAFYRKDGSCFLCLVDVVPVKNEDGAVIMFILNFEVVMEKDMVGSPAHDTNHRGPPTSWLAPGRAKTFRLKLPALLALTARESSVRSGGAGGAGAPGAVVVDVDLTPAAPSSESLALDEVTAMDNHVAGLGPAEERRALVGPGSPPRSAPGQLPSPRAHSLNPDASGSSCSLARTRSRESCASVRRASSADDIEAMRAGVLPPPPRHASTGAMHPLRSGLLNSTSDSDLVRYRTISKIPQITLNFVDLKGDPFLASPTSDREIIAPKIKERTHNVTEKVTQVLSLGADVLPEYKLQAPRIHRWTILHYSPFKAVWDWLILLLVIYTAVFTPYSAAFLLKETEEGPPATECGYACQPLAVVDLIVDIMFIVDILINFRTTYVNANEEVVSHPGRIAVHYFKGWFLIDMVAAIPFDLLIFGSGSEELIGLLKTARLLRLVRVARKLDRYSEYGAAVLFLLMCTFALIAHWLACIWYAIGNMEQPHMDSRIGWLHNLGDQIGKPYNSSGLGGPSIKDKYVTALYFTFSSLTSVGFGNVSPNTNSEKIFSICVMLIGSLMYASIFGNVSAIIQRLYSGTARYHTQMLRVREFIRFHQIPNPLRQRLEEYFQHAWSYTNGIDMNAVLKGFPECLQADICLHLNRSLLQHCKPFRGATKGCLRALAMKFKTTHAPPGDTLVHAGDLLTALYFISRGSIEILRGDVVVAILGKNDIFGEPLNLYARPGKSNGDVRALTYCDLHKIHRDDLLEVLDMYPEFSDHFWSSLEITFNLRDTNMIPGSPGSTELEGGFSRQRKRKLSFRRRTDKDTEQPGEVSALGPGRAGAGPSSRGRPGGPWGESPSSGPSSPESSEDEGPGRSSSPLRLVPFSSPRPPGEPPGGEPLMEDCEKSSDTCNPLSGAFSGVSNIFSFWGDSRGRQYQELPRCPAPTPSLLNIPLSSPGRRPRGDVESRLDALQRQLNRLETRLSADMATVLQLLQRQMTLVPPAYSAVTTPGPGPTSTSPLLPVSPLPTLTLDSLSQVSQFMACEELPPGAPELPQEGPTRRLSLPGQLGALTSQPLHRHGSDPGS
Structure (SMILES),pro-neurogenic activity in the in vivo hippocampal neurogenesis assay [2],brain accumulation relative to other compound [3],other results
OC(CNc1ccccc1)Cn1c2ccc(Br)cc2c2cc(Br)ccc21 (stereo not shown) [Example P7C3],–,–,hypothalamic neurogenesis (BrdU positive staining) [1]: markedly enhances hypothalamic neurogenesis
OC(CNc1ccccc1)Cn1c2ccc(Br)cc2c2cc(Br)ccc21 (stereo not shown) [Example 45 Compound],pro-neurogenic or neuroprotective activity at both concentrations,–,ceiling of efficacy relative to Dimebon in the in vivo test of hippocampal neurogenesis ([2]; higher than Dimebon): roughly 40%
OC(CNc1cccc2ccccc12)Cn1c2ccc(Cl)cc2c2cc(Cl)ccc21 (stereo not shown) [Example P7C3-S184],inactive in both in vivo assays,–,–
"COc1cccc(NCC(F)Cn2c3ccc(Br)cc3c3cc(Br)ccc32)c1 (stereo not shown) [Example P7C3A20, N-(3-(3,6-dibromo-9H-carbazol-9-yl)-2-fluoropropyl)-3-methoxyaniline]",–,less than one-tenth the concentration of P7C3; also recorded: about one-tenth,hERG channel binding [4]: no hERG channel binding
"Cc1ccc2c(c1)c1c(n2CCc2ccc(C)nc2)CCN(C)C1 [Dimebon, 2,3,4,5-Tetrahydro-2,8-dimethyl-5-(2-(6-methyl-3-pyridyl)ethyl)-1H-pyrido(4,3-b)indole, reference compound]",–,comparable levels of brain accumulation to P7C3A20; also recorded: equivalent to P7C3,–
